Experimental data: BindingDB's records for patent US20240124479 (Shanghai Meiyue Biotech Development Co., 2024)

What follows are molecules tested against T1, Pantetheinase (Homo sapiens, UniProt O95497) (assay: Vanin-1 Recombinant Enzyme Activity Inhibition Assay).
T1 sequence (O95497 whole entry): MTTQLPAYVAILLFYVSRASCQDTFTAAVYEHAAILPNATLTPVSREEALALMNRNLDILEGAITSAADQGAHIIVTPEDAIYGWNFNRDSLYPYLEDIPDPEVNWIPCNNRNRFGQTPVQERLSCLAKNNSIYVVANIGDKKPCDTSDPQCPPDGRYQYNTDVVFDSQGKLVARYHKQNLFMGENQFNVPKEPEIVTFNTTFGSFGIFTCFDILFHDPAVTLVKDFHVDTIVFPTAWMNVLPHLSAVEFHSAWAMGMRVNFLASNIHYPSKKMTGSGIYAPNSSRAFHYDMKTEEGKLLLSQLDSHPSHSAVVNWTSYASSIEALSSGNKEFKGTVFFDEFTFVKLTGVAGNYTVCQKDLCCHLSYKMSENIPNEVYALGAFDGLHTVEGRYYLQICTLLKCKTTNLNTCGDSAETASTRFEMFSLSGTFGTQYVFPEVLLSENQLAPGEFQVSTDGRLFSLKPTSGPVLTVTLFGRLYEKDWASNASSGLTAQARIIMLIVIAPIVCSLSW
Experimental: A certain mass of the compound was weighed precisely, and prepared with DMSO and reaction buffer (50 mM Tris base, 50 mM KCl, 1.6 mM cysteamine, 0.005% Brij 35, pH 8.0, prepared when using) to a maximum concentration of 10000 nM, then diluted in a 4-fold gradient, and prepared into 10 compound working solutions with different concentrations;for the activity inhibition reaction of recombinant human Vanin-1 (Biorab, JN0618), 2.5 μL of compound working solution and 5 μL of recombinant human Vanin-1 protein were first mixed.
`O=C(c1cnc(NCc2ccccc2)nc1)N1CCC2(CCOCC2)C1` [US20240124479, Compound 5] showed an IC50 of 65 nM. `CC(Nc1ncc(C(=O)N2CCC3(CCOCC3)C2)cn1)c1ccccc1` (stereo not given) [US20240124479, Compound 6] gave an IC50 of 6 nM. In the case of `O=C(c1cnc(NCc2ccc(F)cc2F)nc1)N1CCC2(CCOCC2)C1` [US20240124479, Compound 12], the IC50 is reported as 17 nM. In the case of `CC(Nc1ncc(C(=O)N2CCC3(CCOCC3)C2)cn1)c1ccc(OC(F)F)cc1Cl` (stereo not given) [US20240124479, Compound 27], the IC50 is reported as 0.4 nM. `C[C@@H](Nc1ncc(C(=O)N2CCC3(CCOCC3)C2)cn1)c1ccc(C(F)(F)F)cc1Cl` [US20240124479, Compound 28] gave an IC50 of 0.8 nM. In the case of `C[C@H](Nc1ncc(C(=O)N2CCC3(CCOCC3)C2)cn1)c1ccc(C(F)(F)F)cc1Cl` [US20240124479, Compound 29], the IC50 is reported as 0.4 nM. Work on `CC(=O)N(C)[C@H]1CCN(C(=O)c2cnc(NC(C)c3c(F)cccc3C(F)(F)F)nc2)C1` (stereo not given in full) [US20240124479, Compound 38] yielded an IC50 of 0.1 nM. Work on `CC(=O)N(C)[C@H]1CCN(C(=O)c2cnc(NC(C)c3ccc(F)cc3Cl)nc2)C1` (stereo not given in full) [US20240124479, Compound 39] yielded an IC50 of 1.8 nM. With `CC(=O)N(C)[C@H]1CCN(C(=O)c2cnc(N[C@H](C)c3ccc(C(F)(F)F)cc3F)nc2)C1` [US20240124479, Compound 41-P2] the IC50 was 0.3 nM. With `CC(=O)N(C)[C@H]1CCN(C(=O)c2cnc(NC(C)c3ccc(C(F)(F)F)cc3F)nc2)C1` (stereo not given in full) [US20240124479, Compound 41] the IC50 was 0.2 nM.
